# Assay results published in article PMC3121697, “Predicting Binding to P-Glycoprotein by Flexible Receptor Docking” (PLoS Computational Biology, 2011).
# Tested on: P-gp
# Assay: not given
# Details: metabolites with favorable scores reassigned to the binders set; cited from earlier work
row,Compound,Reported interaction with P-gp
1,"NC(Cc1cc(I)c(Oc2cc(I)c(O)c(I)c2)c(I)c1)C(=O)O (stereo not shown) [Thyroxine**, Thyroxine]",interact with P-gp
2,"CC(C)CCC[C@@H](C)[C@H]1CC[C@H]2[C@@H]3CC=C4C[C@@H](O)CC[C@]4(C)[C@H]3CC[C@]12C [Cholesterol**, Cholesterol]",interact with P-gp
3,"C=C1CC[C@H](O)C/C1=C/C=C1\CCC[C@]2(C)[C@@H]([C@H](C)CCCC(C)C)CC[C@@H]12 [Vitamin D3**, Vitamin D3]",interact with P-gp
4,"CC(=O)[C@H]1CC[C@H]2[C@@H]3CCC4=CC(=O)CC[C@]4(C)[C@H]3CC[C@]12C [Progesterone**, Progesterone]",interact with P-gp

# Tested on: not listed separately
# Assay: in vitro
# Details: dog, MDCK-MDR1, pH 7.4
# Protocol: (§1) Permeability measurements were performed by Wuxi Apptec, using the following procedures.
# (§2) Test compounds were diluted with the transport buffer (HBSS, pH 7.4) from a 10 mM stock solution to a concentration of 2 µM and applied to the apical (A) or basolateral (B) side of the cell monolayer. […] In addition, the efflux ratio of each compound was also determined. Test and reference compounds were quantified by LC-MS/MS analysis based on the peak area ratio of analyte/IS.
# (§3) The apparent permeability coefficient Papp (cm/s) was calculated using the equation: [drawing 1] where dCr/dt is the cumulative concentration of compound in the receiver chamber as a function of time (µM/s); Vr is the solution volume in the receiver chamber (0.075 mL on the apical side, 0.25 mL on the basolateral side); A is the surface area for the transport, i.e. 0.084 cm^2 for the area of the monolayer; C0 is the initial concentration in the donor chamber (µM).
# (§4) The efflux ratio (ER) was calculated using the equation: [drawing 2]
# (§5) Percent recovery was calculated using the equation: [drawing 3] Where Vd is the volume in the donor chambers (0.075 mL on the apical side, 0.25 mL on the basolateral side); Cd and Cr are the final concentrations of transport compound in donor and receiver chambers, respectively. Cc is the compound concentration in the cell lysate solution (µM), and Vc is the volume of insert well (0.075 mL in this assay).
# (§6) Permeability determinations were performed in triplicate and are reported as mean values.
Compound,"Papp B→A at 150 min, 2 µM","Papp at 150 min, 2 µM"
N#CCNC(=O)[C@H](Cc1c[nH]cn1)NC(=O)OCc1ccccc1 [Compound 9],2.9 ×10⁻⁶ cm/s,0.5 ×10⁻⁶ cm/s

# Tested on: P-gp
# Assay: not given
# Design: method as in Aller paper [29]
# Details: reported value; ref Aller paper [29]; read-out: IC50 for inhibition of verapamil-stimulated ATPase activity; cited from earlier work
row,Compound,IC50
1,QZ59-RRR,4.8 ± 2.6 µM

# Tested on: MDCK-MDR1 cells
# Assay: MDCK-MDR1 monolayer permeability assay
# Details: 2 µM, 150 min
# Protocol: as §1, §2, §3, §4, §5, §6
row,Compound,Mean Efflux Ratio
1,N#CCNC(=O)[C@H](Cc1c[nH]cn1)NC(=O)OCc1ccccc1 [Compound 9],5.8

# Same assay, conditions: 2 µM, 150 min, 37°C, pH 7.4, triplicate mean
row,Compound,Mean Papp A to B
1,N#CCNC(=O)[C@H](Cc1c[nH]cn1)NC(=O)OCc1ccccc1 [Compound 9],0.51 10^−6 cm/s

# Tested on: P-gp
# Assay: not given
# Details: Table S4, Doan et al. dataset; both assays positive or both negative; cited from earlier work
row,Compound,P-gp interaction
1,"O=C(O)c1cc(/N=N/c2ccc(S(=O)(=O)Nc3ccccn3)cc2)ccc1O [Sulfasalazine_a*, Sulfasalazine]",N
2,N=C(N)N/N=C/c1c(Cl)cccc1Cl [Guanabenz],N
3,N=C(N)NC(=O)Cc1c(Cl)cccc1Cl [Guanfacine],N
4,COCCc1ccc(OC[C@H](O)CNC(C)C)cc1 [(R)-Metoprolol],N
5,C=CCOc1ccccc1OC[C@@H](O)CNC(C)C [(S)-Oxprenolol],N
6,CNCCCC1c2ccccc2C=Cc2ccccc21 [Protriptylene],Y
7,C=CCOc1ccccc1OC[C@H](O)CNC(C)C [(R)-Oxprenolol],N
8,OC(CCN1CCCCC1)(c1ccccc1)C1CC2C=CC1C2 [(R)-Biperiden],N
9,COCCc1ccc(OC[C@@H](O)CNC(C)C)cc1 [(S)-Metoprolol],N
10,COc1ccc2c(c1)c(CC(=O)O)c(C)n2C(=O)c1ccc(Cl)cc1 [Indomethacin],N
11,C=CCN1CC[C@]23c4c5ccc(O)c4O[C@H]2C(=O)CC[C@@]3(O)[C@H]1C5 [Naloxone],N
12,OC[C@@H](O)[C@@H](O)[C@H](O)[C@H](O)CO [Mannitol],N
13,CNC(C)(C)Cc1ccccc1 [Mephentermine],N
14,(S)-Levomeprazine,Y
15,c1ccc2c(c1)Sc1ccccc1N2CC1CN2CCC1CC2 [(S)-Mequitazine],Y
16,CN(C)C/C=C(/c1ccc(Br)cc1)c1cccnc1 [Zimeldine],N
17,"O=C(O)c1cc(/N=N/c2ccc(S(=O)(=O)Nc3ccccn3)cc2)ccc1O [Sulfasalazine_b*, Sulfasalazine]",N
18,c1ccc2c(c1)Sc1ccccc1N2C[C@H]1CN2CCC1CC2 [(R)-Mequitazine],Y
19,OC(CCN1CCCCC1)(c1ccccc1)C1CC2C=CC1C2 [(S)-Biperiden],N
20,CN(C)CCCN1c2ccccc2CCc2ccccc21 [Imipramine],N
21,CNS(=O)(=O)Cc1ccc2[nH]cc(CCN(C)C)c2c1 [Sumatriptan],N
22,NC(=O)N1c2ccccc2C=Cc2ccccc21 [Carbamazepine],N
23,CC(C)(C)NC(=O)[C@@H]1C[C@@H]2CCCC[C@@H]2CN1C[C@@H](O)[C@H](Cc1ccccc1)NC(=O)[C@H](CC(N)=O)NC(=O)c1ccc2ccccc2n1 [Saquinavir],Y
24,Cc1c(O)cccc1C(=O)N[C@@H](CSc1ccccc1)[C@H](O)CN1C[C@H]2CCCC[C@H]2C[C@H]1C(=O)NC(C)(C)C [Nelfinavir],Y
25,COc1ccc2c(c1)N(C[C@H](C)CN(C)C)c1ccccc1S2 [(R)-Levomeprazine],Y
26,NC12CC3CC(CC(C3)C1)C2 [Amantadine],N
27,Clc1cccc(Cl)c1N=C1NCCN1 [Clonidine],N

# Same assay, conditions: Table S5, Doan et al. dataset; both assays positive or both negative; cited from earlier work
row,Compound,P-gp interaction
1,O=C(O)c1cc(/N=N/c2ccc(S(=O)(=O)Nc3ccccn3)cc2)ccc1O [Sulfasalazine],N

# Same assay, conditions: not told; cited from earlier work
row,Compound,P-gp interaction
1,CC(C)(C)c1ccc([C@@H](O)CCCN2CCC(C(O)(c3ccccc3)c3ccccc3)CC2)cc1 [(S)-terfenadine],Y
2,COc1ccc(CCN2CCC(Nc3nc4ccccc4n3Cc3ccc(F)cc3)CC2)cc1 [Astemizole],Y
3,CN(C)CC[C@@H](c1ccccc1)c1ccccn1 [(S)-Pheniramine],N
4,CN(C)CCO[C@](C)(c1ccccc1)c1ccccn1 [(R)-Doxylamine],N
5,CN(C)C(=O)C(CCN1CCC(O)(c2ccc(Cl)cc2)CC1)(c1ccccc1)c1ccccc1 [Loperamide],Y
6,CC(C)(C)c1ccc([C@H](O)CCCN2CCC(C(O)(c3ccccc3)c3ccccc3)CC2)cc1 [(R)-terfenadine],Y
7,CC(=O)C[C@@H](c1ccccc1)c1c(O)c2ccccc2oc1=O [(S)-Warfarin],N
8,CN[C@@]1(c2ccccc2Cl)CCCCC1=O [(R)-Ketamine],N
9,CN(C)CC[C@H](c1ccccc1)c1ccccn1 [(R)-Pheniramine],N
10,CN[C@]1(c2ccccc2Cl)CCCCC1=O [(S)-Ketamine],N
11,CN(C)CC[C@H](c1ccc(Cl)cc1)c1ccccn1 [(R)-Chlorpheniramine],N
12,CN(C)CC[C@@H](c1ccc(Cl)cc1)c1ccccn1 [(S)-Chlorpheniramine],N
13,CC(=O)C[C@H](c1ccccc1)c1c(O)c2ccccc2oc1=O [(R)-Warfarin],N
14,Nc1c2c(nc3ccccc13)CCCC2 [Tacrine],N
15,Cc1cc(=O)n(-c2ccccc2)n1C [Antipyrine],N
16,CN(C)CCO[C@@](C)(c1ccccc1)c1ccccn1 [(S)-Doxylamine],N
17,O=C1CN=C(c2ccccc2)c2cc([N+](=O)[O-])ccc2N1 [Nitrazepam],N
18,CCCC(C)(COC(N)=O)COC(N)=O [Meprobamate],N
